Test results taken from US7495027B2, “3-aryl-4-hydroxyfuranone compounds and the human and animal health use thereof” (Wyeth, priority 2003, dated 2009).

Legend:
[1] = molecular target: T1, S. aureus UDP-N-acetylglucosamine enolpyruvoyl transferase, MurA (Staphylococcus aureus, UniProt P84058); assay: Inhibitory activity against MurA (S. aureus); assay type: biochemical; conditions: (S) S. aureus enzyme
T1 sequence (P84058 1-421): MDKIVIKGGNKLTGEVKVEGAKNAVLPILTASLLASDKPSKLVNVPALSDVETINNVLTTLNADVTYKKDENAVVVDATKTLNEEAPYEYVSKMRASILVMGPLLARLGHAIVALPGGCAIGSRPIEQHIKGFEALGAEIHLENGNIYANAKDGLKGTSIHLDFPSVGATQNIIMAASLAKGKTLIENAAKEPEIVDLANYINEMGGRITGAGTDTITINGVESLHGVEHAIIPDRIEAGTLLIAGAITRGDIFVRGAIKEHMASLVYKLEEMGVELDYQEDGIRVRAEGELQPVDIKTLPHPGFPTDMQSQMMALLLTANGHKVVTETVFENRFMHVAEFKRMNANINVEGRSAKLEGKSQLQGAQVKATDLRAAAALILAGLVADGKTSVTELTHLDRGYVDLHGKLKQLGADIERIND
Procedure: Evaluation of the Inhibitory Activity of Test Compounds Against Enzymes which Catalyze Bacterial Cell Wall Biosynthesis
S. aureus and E. coli UDP-N-acetylglucosamine enolpyruvoyl transferase, MurA
Preparation of Enzyme Solution:
The enzyme solution is prepared by admixing the following: 50 mM Tris/HCl pH 8.0, […] 1 M Tris, 5 mM DTT, […] 1 M DTT, 20% Glycerol 4 ml 50% Glycerol, add water to 10 ml.
Preparation of Stop Solution:
The stop solution is prepared by mixing the following: 4.2% ammonium molybdate in 4N HCl, 8.4 g/200 ml 4N HCl, 0.045% malachite green, 90 mg/200 ml water, then stir 1 part ammonium molybdate with 2 parts malachite green for 30 min.
A procedure similar to that described by C. T. Walsh in Biochemistry 33, 10646-10651, is used to evaluate the inhibitory activity of test compounds against MurA, the enzyme which catalyzes the first step of bacterial cell wall biosynthesis. Experiments are performed by adding a solution of test compound (in a mixture of dimethylsulfoxide and water) and an enzyme solution to a well. After a pre-incubation period of 10 mintues at 37° C., Tris/BME buffer and assay buffer are added. A start point optical density (OD0) reading is taken at 340 nm immediately following the addition of assay buffer. After incubation for 1 hr at 37° C., the stop solution is added and the color is allowed to develop for 30 minutes. An end point OD1 reading at […] is then taken. […]

Compound	melting point	IC50 [1] [µM]
O=Cc1cccc(C2=C(O)/C(=C/c3cccc4ccccc34)OC2=O)c1 [Example 76]	220 to 221 °C	17.5
O=C1O/C(=C\c2cccc3ccccc23)C(O)=C1c1cc(Cl)cc(Cl)c1 [Example 70]	244 to 245 °C	39.1
O=C1O/C(=C\c2ccc(-c3ccccc3)cc2)C(O)=C1c1cccs1 [Example 144]	213 °C (dec.)	> 72.2
